Test results published in patent publication US10912815B2, “Inhibitors of mitochondrial fission and methods of use thereof” (The Board of Trustees of the Leland Stanford Junior …, priority 2011, dated 2021).
Entries after “also recorded” stand apart in the source; their conditions may differ. No end group written: not given here.

Legend:
[1] = test system: Drp1; experiment: Confocal imaging of Drp1 localization on mitochondria in SH-SY5Y cells; format: cell-based, human; conditions: SH-SY5Y exposed to MPP+ or CCCP, FIG. 3G
Method: The effects of MPP+ or CCCP on translocation of Drp1 in the absence and presence of P110 was measured using confocal microscopy. Cultured SH-SY5Y cells in black 96-well plate were treated with Drp1 peptide inhibitor P110 (1 μM) 30 min prior to treatment of MPP+ (2 mM) or CCCP (5 uM). After 2 hrs of treatment, cells were stained with MITOSOX™ (red mitochondrial superoxide indicator) (5 uM, for 10 min, mitochondrial ROS) or TMRM (0.5 uM, for 20 min, MMP) at 37° C. For total ROS detection, cells were treated with MPP+ or CCCP for 24 hrs. ROS level was measured by CM-H2DCFDA (1 μM for 30 min, Invitrogen). Cells were washed with PBS for three times. The detection was performed in a fluorescence microplate reader (Tecan, Infinite M1000) according to manufacturer's instructions. Measurements were normalized to the cell number counted using Hoechst staining.
The data, quantitated by Image J software, is provided in a histogram FIG. 3G.

[2] = molecular target: Drp1/Fis1 interaction (Homo sapiens, UniProt O00429); experiment: Drp1-Fis1 interaction in cultured SH-SY5Y neuronal cells (crosslink, immunoprecipitation); format: cell-based; set-up: endogenous in cells; host or cells: SH-SY5Y; conditions: peptides 1 μM, FIG. 2E
Sequence of Drp1/Fis1 interaction (O00429 whole entry): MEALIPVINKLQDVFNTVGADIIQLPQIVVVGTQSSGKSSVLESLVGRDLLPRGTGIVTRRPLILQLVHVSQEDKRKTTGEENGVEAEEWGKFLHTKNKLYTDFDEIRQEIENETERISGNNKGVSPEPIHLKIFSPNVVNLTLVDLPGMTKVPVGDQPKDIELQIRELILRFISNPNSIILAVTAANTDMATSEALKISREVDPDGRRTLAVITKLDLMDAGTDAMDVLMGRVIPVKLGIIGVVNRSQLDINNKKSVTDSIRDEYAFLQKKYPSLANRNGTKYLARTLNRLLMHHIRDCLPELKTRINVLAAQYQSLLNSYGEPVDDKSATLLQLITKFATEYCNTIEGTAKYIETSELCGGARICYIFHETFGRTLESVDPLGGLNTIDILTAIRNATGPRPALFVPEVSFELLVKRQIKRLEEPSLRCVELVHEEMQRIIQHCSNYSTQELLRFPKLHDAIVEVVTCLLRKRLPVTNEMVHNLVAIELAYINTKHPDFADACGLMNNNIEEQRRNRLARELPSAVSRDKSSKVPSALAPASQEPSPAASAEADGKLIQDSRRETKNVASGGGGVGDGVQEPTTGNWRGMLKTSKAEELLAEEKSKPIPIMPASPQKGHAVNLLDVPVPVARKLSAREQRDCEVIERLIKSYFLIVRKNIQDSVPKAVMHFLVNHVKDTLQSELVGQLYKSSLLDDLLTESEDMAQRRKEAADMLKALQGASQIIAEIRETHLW
Method: SH-SY5Y cells were treated with Drp1 peptides P110, P109, P112 or TAT47-57 only (1 μM). Because the interaction between Drp1 and Fis1 is transient and dynamic, cells were treated with the crosslinker, DSP, (0.75 mM for 30 min), as described in a previous study (Yoon et al., 2003, Mol Cell Biol 23:5409-5420). The cells were lysed in total cell lystes (50 mM Tris-HCl, pH 7.5, containing 150 mM NaCl, 1% Triton X-100, and protease inhibitor). Immunoprecipitates were analyzed by SDS-PAGE and immunoblotting with antibodies to Drp1, VDAC, and Fis1. VDAC was used as a loading control

[3] = test system: Drp1 Ser616; experiment: Drp1 Ser616 phosphorylation in SH-SY5Y cells; format: cell-based, human
Method: Cultured human SH-SY5Y neuronal cells were treated with peptide P110 (1 μM) for 30 min prior to 1 hr incubation in the absence or presence of MPP+(1-methyl-4-phenylpyridinium, a specific mitochondrial complex I inhibitor) (2 mM) or CCCP (carbonyl cyanide m-chloro phenyl hydrazone) (10 μM). Western blot analysis of mitochondrial fractions was determined by the indicated antibodies. VDAC was used as a loading control.
The function of Drp1 is regulated at least in part by phosphorylation events.

[4] = molecular target: T1, Mfn1 (Homo sapiens, UniProt Q8IWA4); experiment: In vitro GTPase assay, recombinant Mfn1; format: biochemical; conditions: recombinant Mfn1 25 ng, FIG. 2B
T1 sequence (Q8IWA4 1-741): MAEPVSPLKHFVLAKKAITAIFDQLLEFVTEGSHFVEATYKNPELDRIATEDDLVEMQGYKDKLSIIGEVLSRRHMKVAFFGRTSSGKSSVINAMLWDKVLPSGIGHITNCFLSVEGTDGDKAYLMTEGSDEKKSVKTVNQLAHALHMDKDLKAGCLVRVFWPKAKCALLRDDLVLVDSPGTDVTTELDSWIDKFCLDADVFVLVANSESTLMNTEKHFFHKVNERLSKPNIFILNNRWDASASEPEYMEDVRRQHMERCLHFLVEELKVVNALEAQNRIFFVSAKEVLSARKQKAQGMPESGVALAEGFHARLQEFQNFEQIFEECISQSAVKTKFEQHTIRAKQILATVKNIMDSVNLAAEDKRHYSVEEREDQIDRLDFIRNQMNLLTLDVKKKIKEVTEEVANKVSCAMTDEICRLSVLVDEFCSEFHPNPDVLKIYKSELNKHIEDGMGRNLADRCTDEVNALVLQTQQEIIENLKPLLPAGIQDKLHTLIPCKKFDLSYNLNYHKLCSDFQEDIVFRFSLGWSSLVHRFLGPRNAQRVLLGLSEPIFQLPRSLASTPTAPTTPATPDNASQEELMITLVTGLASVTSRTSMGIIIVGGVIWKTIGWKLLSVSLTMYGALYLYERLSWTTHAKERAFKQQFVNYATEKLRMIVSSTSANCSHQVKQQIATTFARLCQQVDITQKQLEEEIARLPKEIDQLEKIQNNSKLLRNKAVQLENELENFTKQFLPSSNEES
Method: (§1) First, mitochondrial fission inhibitor constructs were tested to determine what, if any, effects each peptide had on enzyme (GTPase) activity. Recombinant protein Drp1, Mfn1, OPA1 or dynamin-1 (25 ng) was incubated with the indicated modulator peptides for 30 min. GTPase activity was assayed in vitro using a GTPase assay kit (Innova Biosciences, Littleton, USA, or Novus Biologicals, Littleton, Colo.) according to manufacturer's instructions.

[5] = test system: SH-SY5Y cells
Method: Cell viability of stressed SH-SY5Y cells was measured by MTT assay.
In another experiment, Human SH-SY5Y cells were treated with Drp1 P108, P109 or P110 or Fis1 P111, P112 or P113 (0.5 μM) for 15 min followed by treatment with MPP+(1 mM for 24 hrs). The cell viability was then determined by MTT test.

[6] = molecular target: Recombinant protein Drp1 (Homo sapiens, UniProt O00429); experiment: In vitro GTPase assay, recombinant Drp1; format: biochemical
Sequence of Recombinant protein Drp1 (O00429 1-710 isoform O00429-3): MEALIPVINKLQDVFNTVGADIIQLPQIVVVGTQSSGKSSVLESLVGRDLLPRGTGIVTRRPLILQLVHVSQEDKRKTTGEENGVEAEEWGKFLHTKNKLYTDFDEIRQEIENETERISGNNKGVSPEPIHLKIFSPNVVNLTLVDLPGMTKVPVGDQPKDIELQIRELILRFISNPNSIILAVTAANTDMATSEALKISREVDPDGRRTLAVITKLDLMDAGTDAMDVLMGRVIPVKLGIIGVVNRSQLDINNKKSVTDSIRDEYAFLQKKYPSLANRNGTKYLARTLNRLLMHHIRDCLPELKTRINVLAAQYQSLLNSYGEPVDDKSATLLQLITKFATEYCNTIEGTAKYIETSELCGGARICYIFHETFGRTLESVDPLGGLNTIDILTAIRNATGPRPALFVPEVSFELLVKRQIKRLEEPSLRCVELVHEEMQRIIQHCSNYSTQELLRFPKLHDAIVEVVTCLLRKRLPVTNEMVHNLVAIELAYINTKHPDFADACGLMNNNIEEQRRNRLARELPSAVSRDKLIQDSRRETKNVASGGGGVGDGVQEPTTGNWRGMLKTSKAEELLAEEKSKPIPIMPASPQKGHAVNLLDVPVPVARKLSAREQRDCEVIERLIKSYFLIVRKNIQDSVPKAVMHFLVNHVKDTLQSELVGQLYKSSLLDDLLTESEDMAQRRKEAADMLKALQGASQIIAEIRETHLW
Method: as §1

RRRQRRKKRGYGGDLLPRGS (RRRQRRKKRGYGGDLLPRGS-NH2) [P110, TAT47-57 carrier, GG linker, Drp1 region 110 (GTPase domain) peptide DLLPRGS; C-terminus C(O)-NH2]
co-localization of Drp1 with mitochondria [1]: greatly reduced | Drp1-Fis1 interaction in cultured SH-SY5Y neuronal cells [2]: inhibited interaction of Drp1 and Fis1; also recorded: Inhibition | Drp1 Ser616 phosphorylation ([3]; SH-SY5Y exposed to MPP+ or CCCP, FIG. 3F): abolished Ser616 phosphorylation | Drp1 levels and phosphorylation under normal conditions ([3]; SH-SY5Y, no stressor): did not affect | effect on GTPase activity of Mfn1 (mitofusin 1) [4]: no effects | mitochondrial damage and neuronal cell death (MTT) ([5]; peptides 0.5 μM 15 min, MPP+ 1 mM for 24 hrs, n=7-8, FIG. 9F): reduced mitochondrial damage and neuronal cell death | cell viability (MTT) ([5]; peptides 1 μM each, MPP+ 2 mM for 24 hours, FIG. 9E): improved cell viability | specifically inhibited Drp1 GTPase activity ([6]; in vitro GTPase assay, n=3, first statement of b271): 30% | inhibition in the GTPase activity of recombinant Drp1 ([6]; recombinant Drp1 25 ng, 30 min incubation with peptide, FIG. 2A): 50%
